Assay results: PMC8126888 (RSC Medicinal Chemistry, 2020)

Experiments:
[1] = system: Leishmania infantum MHOM/MA(BE)/67/ITMAP263 intracellular amastigotes; details: for IC50: read-out: L. infantum MHOM/MA(BE)/67/ITMAP263 intracellular amastigotes IC50
[2] = system: L. donovani MHOM/ET/67/L82 intracellular amastigotes; details: read-out: L. donovani MHOM/ET/67/L82 intracellular amastigotes IC50
[3] = system: primary peritoneal mouse macrophages (PMM); details: read-out: PMM IC50
MRC-5SV2 cells = assay: Cytotoxicity assay on MRC-5SV2 cells (resazurin)

Row | Structure (SMILES) | IC50 [1] [µM] | IC50 [2] [µM] | IC50 [3] [µM] | CC50 (MRC-5SV2 cells) [µM] | L. Inf. pIC50 [1]
1 | CCCCNS(=O)(=O)c1cccc(NC(=O)c2cnc(C)cn2)c1 [Compound Z88583029] | > 32 | > 32 | > 32 | > 32 | 
2 | Cc1ccc(NC(=O)CN(CC(C)C)c2cccc(O)c2)cc1S(=O)(=O)N(C)C [Compound Z1317978681] | 16.1 | 19 | > 32 | 28.4 | 4.79
3 | COC(=O)c1c(C)[nH]c(C(=O)Nc2cccc(S(=O)(=O)N3CCCC3)c2)c1C [Compound Z30224758] | > 32 | > 32 | > 32 | > 32 | 
4 | CCCCNS(=O)(=O)c1cccc(NC(=O)c2cc(C)c(C)s2)c1 [Compound Z88584860] | > 32 | > 32 | > 32 | > 32 | 
5 | Cc1ccc(NC(=O)c2[nH]c(C)c(C(=O)OC(C)C)c2C)cc1S(=O)(=O)N1CCCCC1 [Compound Z51733284] | 10.2 | 16.2 | 16 | 3.11 | 4.99
6 | CN(Cc1ccccc1NCC(=O)Nc1cccc(S(=O)(=O)N(C)C)c1)C1CCCCC1 [Compound Z31013342] | 21.5 | > 32 | > 32 | > 32 | 4.67
7 | CCN(CC)S(=O)(=O)c1cc(NC(=O)c2[nH]c(C)c(C(=O)OC)c2C)ccc1C [Compound Z26467494] | 16.1 | 12 | > 32 | 10.9 | 4.79
8 | CCCc1c(C(=O)Nc2cccc(S(=O)(=O)NCc3ccco3)c2)[nH]c(C)c1C(C)=O [Compound Z966334826] | 14.5 | > 32 | > 32 | 12.8 | 4.84
9 | CCOc1ccc(NC(=O)c2[nH]c(C)c(C(=O)OC)c2C)cc1S(=O)(=O)N1CCCC1 [Compound Z29178369] | > 32 | > 32 | > 32 | > 32 | 
10 | COc1ccc(S(=O)(=O)N(Cc2cccc(F)c2)Cc2cccc(F)c2)cc1OC [Compound Z220633200] | 10.1 | 25.4 | > 32 | > 32 | 4.99
11 | CCOC(=O)c1c(C)[nH]c(C(=O)Nc2cccc(S(=O)(=O)N3CCOCC3)c2)c1C [Compound Z30001211] | > 32 | > 32 | > 32 | 18.1 | 
12 | CN(C)S(=O)(=O)c1cccc(NC(=O)CNc2cccc3c2CCCC3)c1 [Compound Z30985744] | > 32 | > 32 | > 32 | > 32 | 
13 | COc1ccc(S(=O)(=O)N(C)C)cc1NC(=O)CN1C(=O)COc2ccccc21 [Compound Z29560624] | > 32 | > 32 | > 32 | > 32 | 
14 | CCOC(=O)c1c(C)[nH]c(C(=O)Nc2ccc(Cl)c(S(=O)(=O)N3CCCCC3)c2)c1C [Compound Z30461235] | 2.99 | 3.39 | 16 | 2.17 | 5.52
15 | Cc1ccc(NC(=O)CN2CCCCc3ccccc32)cc1S(=O)(=O)N1CCOCC1 [Compound Z1318043362] | 16.6 | 25.4 | 16 | > 32 | 4.78
16 | COc1ccc(OC)c(S(=O)(=O)N(Cc2ccccc2)Cc2ccccc2)c1 [Compound Z45508995] | 1.01 | 1.19 | > 32 | 6.41 | 6
17 | COC(=O)c1cccc(C(=O)Nc2cccc(S(=O)(=O)N3CCCC3)c2)n1 [Compound Z441654950] | > 32 | > 32 | > 32 | > 32 | 
18 | CNC(=O)NC(=O)COc1ccc(S(N)(=O)=O)cc1 [Compound Z381095182] | > 32 | > 32 | > 32 | > 32 | 
